Series [1] is described as follows: Continuous flow mixing of stabilizer solution with sodium hypochlorite: temperature excursion and pH change. Type of series: physicochemical. Conditions: for ΔpH: 12.2% NaOCl (initial pH 12.6); for ΔT: 12.2% NaOCl. As to the method: For each data point, the combined flow rates of the stabilizer and hypochlorite solutions were adjusted in order to maintain the desired molar ratio of NaOCl to active ingredient (A.I.). The solution temperature was recorded before the onset of flow and after combination with the hypochlorite solution. In addition, the final pH of the resulting collected solution was recorded after a 2 min interval of continuous flow.
Stabilizer solutions of the present invention were prepared via dissolution of at least one substituted N-hydrogen compound (DMH=5,5-dimethylhydantoin and/or Amine=ethanolamine, morpholine) (i), and of at least one additional containing nitrogen compound (ii) in water with the pH adjusted to 7-9.5, if necessary. […]
Sodium hypochlorite solutions were used directly at high concentration (12.2%).
Consistent with known ammonia and urea chemistry (vide supra), mixing a halogen source and ammonium salt solutions at Cl2:N ratios greater than 1 (e.g., 2-4) usually results in substantial exothermic temperature excursions (ΔT, in Kelvin) and reductions in pH due to decomposition reactions that occur.

The conditions of series [2]: high pH (12.4-13.4); Cl2:urea ratios of 1:1-2:1; WO 2007/089539 A2 / US 2007/0178173 A1; cited from earlier work.
Series [3] concerns Enterobacter aerogenes (ATCC 13048) and Pseudomonas aeruginosa (ATCC 15442). In words: Biocidal efficacy in paper pulp slurry (modified ASTM E: 1839-07). Type of series: cell-based. The conditions noted are these: 2 ppm total Cl2, 3 h, 34° C., DMH 1.81 ppm alone. As to the method:
The conditions of the experiment were a modification of the method described in ASTM E: 1839-07. A 1% pulp slurry was prepared via shredding white laser printer paper and adding to an appropriate amount of 400 ppm alkalinity (as CaCO3) water solution. The slurry was rapidly mixed while heating to 98(±2) ° C., followed by cooling to room temperature. The pH was adjusted to 8.5 with 1N H2SO4 and the slurry was diluted to 0.5% with deionized water. A 98(±1) mL aliquot was transferred to a 125 mL sample flask and steam sterilized and cooled to room temperature prior to use.
Stock solutions of NaOCl at either 51,000 ppm or 400 ppm (as Cl2) were freshly prepared prior to the organism challenge test. Dilutions of the test samples were made in order to prepare a sample solution at the desired Cl2:Active Ingredient molar ratio and the flasks were dosed according to the target total Cl2 desired (2 ppm total Cl2).
Twenty four hour cultures of Enterobacter aerogenes (ATCC 13048) and Pseudomonas aeruginosa (ATCC 15442) were used for the testing. Microbiological counts were performed using tryptic soy agar (TSA) […] by known pour plate techniques. Final bacterial concentration of the inoculum was between 2×10^6 and 1×10^7 CFU/mL. 1 mL of the inoculum was then placed into each of the sample to be tested and the samples placed onto a shaker for 3 hours at 34° C. After the 3 hour contact time, DIFCO Dey-Engley (D/E) Neutralizing Broth was used as the first serial dilution tube for biocide neutralization and dilutions were plated through 10^6.

[4] abbreviates: 5% active ingredients, Cl2:NH3 or Cl2:Urea 2.5.
Setting [5] is: 15% active ingredients, Cl2:NH3 or Cl2:Urea 8.
Where [6] appears, read: 15% active ingredients, Cl2:NH3 or Cl2:Urea 2.
[7] abbreviates: 15% active ingredients, Cl2:NH3 or Cl2:Urea 4.
The mark [8] stands for this setting: 17% active ingredients, Cl2:NH3 or Cl2:Urea 4.

As for `NC(N)=O` [Urea, urea], in series [1] (setting [4]), the ΔpH is recorded as −0.5 and the ΔT is 18 K. For the same compound, in series [1] (setting [5]), the ΔpH is recorded as −0.7 and the ΔT worked out at 36 K. The total halogen yield in series [2] is recorded as 48-69%.
Turning to `Br.N` [NH4Br, ammonium bromide], the ΔpH is −9.5 in series [1] (setting [6]), −5.3 in series [1] (setting [7]) and −5.3 in series [1] (setting [8]). Also, the ΔT in series [1] (setting [6]) is 37 K; in series [1] (setting [7]) it was 31 K; in series [1] (setting [8]) it was 34 K.
Turning to `CC1(C)NC(=O)NC1=O` [DMH, 5,5-dimethylhydantoin], the “Efficacy (Δlg)” value in series [3] (box paper pulp slurry) is 0.1 Δlg; in series [3] (fine paper pulp slurry (Table 3 series)) it was 3.2 Δlg; in series [3] (fine paper pulp slurry (Table 4 series)) it was 2.9 Δlg.

(Values after patent US8933244B2, “Stabilized active halogen solutions” (Lonza Inc., priority 2009, dated 2015).)
